Data: patent US9510570B2, “CD81 and OCLN double transgenic mouse and its construction methods” (WUHAN INSTITUTE OF VIROLOGY, CAS, priority 2013, dated 2016)

Tested on: HCV
Assay: Pharmacodynamic evaluation of antiviral drug in C/O^Tg mice by acute HCV infection (HCV RNA copies by qRT-PCR)
Format: in vivo, C/O^Tg male mice
Conditions: for viral load in the peripheral blood: started 1 week after HCV injection
Protocol: Plasmid pJ399EM was transcribed in vitro (Han et al., 2009) to obtain a RNA, and then the RNA was electroporated into Huh7.5.1 cells (Pasteur Institute) for virus production during 96 hours and for collection, followed by ultrafiltration and purification to obtain HCV. The C/O^Tg double transgenic mice or the wile type mice were injected at tail-vein with HCV (TCID50=1×10^8/mL) within 1-2 minutes. The serum or liver tissue of the C/O^Tg double transgenic mice or the wile type mice were collected respectively at indicated time 0 hour to 12 months after infection. HCV RNA level in serum (genomes/mL) and liver (genomes/g) were measured by qRT-PCR. The program was performed as follows: 50° C. for 30 minutes, 95° C. for 10 minutes, followed by 50 cycles at 95° C. for 30 seconds, 58° C. for 30 seconds, and 72° C. for 30 seconds. Primers used for detection were as follows: sense (forward primer): […] (represented by SEQ ID NO. 5); anti-sense (reverse primer): […] (represented by SEQ ID NO. 6). The viral load in serum (genomes/mL) of the wild type mice after injection was: 53746900±747977 (12 hours), 25791242±8626787 (2 days), 7026±2797 (4 days), 433±73 (1 week), and then the viral copies in peripheral blood of wild type mice was undetectable after one week. The viral load in peripheral blood (genomes/mL) of the C/O^Tg double transgenic mice after injection was: 3598678±3016340 (12 hours), 1607875±1304933 (2 days), 228942±174178 (4 days), 64505±6821 (1 week), 67622±4612 (2 weeks), 33671±13347 (3 weeks), 6921±4272 (1 month), 6739±4783 (2 months), 403±95 (3 months), 534±125 (4 months), 1375±198 (6 months), 4781±2969 (10 months), 2067±277 (12 months). […] The viral copies cannot be detectable in liver of the wile type mice after injection. The viral copies in the liver (genomes/g) of the C/O^Tg double transgenic mice after injection was: 149676500±26422459.09 (12 hours), 68863260±26554660 (2 days), 30167166±14023164 (4 days), 48183923±49326087 (1 week), 5221675±782099 (2 weeks), 4723475±570250 (3 weeks), 5649760±3372903 (1 month), 3597135±2671267 (2 months), 1831199±34834 (3 months), 3055570±565440 (4 months), 10729851±3954535 (6 months), 14392085±1902774 (10 months), 15543000±124774 (12 months). […] Meanwhile, the liver tissues were used for pathological analysis (H&E stain, Masson's stain), ultrasound, CT and other non-invasive imaging analysis to assess hepatitis, liver damage (fibrosis and cirrhosis) and other typical HCV pathology caused by HCV infection. The double transgenic mice infected by HCV express mild hepatitis symptoms (most ALT<40). The ALT level of the wild type mice was (U/L): 17.8±11.08 (uninfected), 10.5 0.51 (12 hours), 7.0±1.42 (2 days), 29.5±9.19 (4 days), 6.6±3.54 (1 weeks), 28.2±8.84 (2 weeks), 17.7±13.33 (1 month), 27.9±1.69 (2 months), 26.5±0.70 (3 months), 37.4±12.90 (4 months), 27.3±6.01 (10 months), 16.5±6.29 (12 months). The ALT level of the C/O^Tg double transgenic mice was (U/L): 17.8±11.01 (uninfected), 7.8±6.72 (12 hours), 28.0±1.25 (2 days), 57.3±3.88 (4 days), 16.3±7.72 (1 week), 61.0±5.65 (2 week), 21.2±11.16 (1 month), 19.6±0.68 (2 months), 27.4±10.25 (3 months), 36.3±4.06 (4 months), 35.7±5.44 (6 months), 19.5±3.79 (10 months), 232.3±26.89 (12 months). […] The prealbumin levels of the wild type mice after injection were maintained at normal levels (20˜30 mg/L), but the prealbumin levels of the C/O^Tg double transgenic mice cannot be detectable 4 days after infection. […]

| SMILES | viral copies in the liver (Telaprevir 200 mg/kg i.p. daily, 1 week after Telaprevir injection) | viral load in the peripheral blood (Ribavirin 20 mg/kg i.p. daily, treatment for 1 week) | viral load in the peripheral blood (Ribavirin 20 mg/kg i.p. daily, treatment for 4 weeks) | viral copies in the liver (Ribavirin 20 mg/kg i.p. daily, 1 week after Ribavirin injection) | viral copies in the liver (Ribavirin 20 mg/kg i.p. daily, 4 weeks after Ribavirin injection) |
| --- | --- | --- | --- | --- | --- |
| CCC[C@H](NC(=O)[C@@H]1[C@H]2CCC[C@H]2CN1C(=O)[C@@H](NC(=O)[C@@H](NC(=O)c1cnccn1)C1CCCCC1)C(C)(C)C)C(=O)C(=O)NC1CC1 [Telaprevir] | 273±301 genomes/mg | – | – | – | – |
| NC(=O)c1ncn([C@@H]2O[C@H](CO)[C@@H](O)[C@H]2O)n1 [Ribavirin] | – | cannot be detected | cannot be detected | 260±226 genomes/mg | 894±639 genomes/mg |
